Reference: patent publication US20020026053A1, “Novel 3-(substituted) -2- indolinones compounds and use thereof as inhibitors of protein kinase activity” (priority 1997, published 2002)

Target: T1, Met receptor (EGFR/Met chimeric cells, EMR) (Homo sapiens, UniProt P08581)
T1 construct: expressed in transfected cells; the other entry of the earlier key: EGFR (P00533, Epidermal growth factor receptor)
Experiment: Met Autophosphorylation Assay
Format: biochemical
Conditions: protocol P.130
Outline: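 Met phosphorylation was measured by capture ELISA. Lysates (90 μg/100 μl, HNTG plus 1 mM PMSF) from transiently transfected EGFR/Met chimera (EMR) cells were bound for 60 min at room temperature to wells holding rabbit anti-Met (C-28) on goat anti-rabbit coat. Phosphotyrosine was the read-out.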

T1 sequence (P08581 with tags, fused parts or gaps): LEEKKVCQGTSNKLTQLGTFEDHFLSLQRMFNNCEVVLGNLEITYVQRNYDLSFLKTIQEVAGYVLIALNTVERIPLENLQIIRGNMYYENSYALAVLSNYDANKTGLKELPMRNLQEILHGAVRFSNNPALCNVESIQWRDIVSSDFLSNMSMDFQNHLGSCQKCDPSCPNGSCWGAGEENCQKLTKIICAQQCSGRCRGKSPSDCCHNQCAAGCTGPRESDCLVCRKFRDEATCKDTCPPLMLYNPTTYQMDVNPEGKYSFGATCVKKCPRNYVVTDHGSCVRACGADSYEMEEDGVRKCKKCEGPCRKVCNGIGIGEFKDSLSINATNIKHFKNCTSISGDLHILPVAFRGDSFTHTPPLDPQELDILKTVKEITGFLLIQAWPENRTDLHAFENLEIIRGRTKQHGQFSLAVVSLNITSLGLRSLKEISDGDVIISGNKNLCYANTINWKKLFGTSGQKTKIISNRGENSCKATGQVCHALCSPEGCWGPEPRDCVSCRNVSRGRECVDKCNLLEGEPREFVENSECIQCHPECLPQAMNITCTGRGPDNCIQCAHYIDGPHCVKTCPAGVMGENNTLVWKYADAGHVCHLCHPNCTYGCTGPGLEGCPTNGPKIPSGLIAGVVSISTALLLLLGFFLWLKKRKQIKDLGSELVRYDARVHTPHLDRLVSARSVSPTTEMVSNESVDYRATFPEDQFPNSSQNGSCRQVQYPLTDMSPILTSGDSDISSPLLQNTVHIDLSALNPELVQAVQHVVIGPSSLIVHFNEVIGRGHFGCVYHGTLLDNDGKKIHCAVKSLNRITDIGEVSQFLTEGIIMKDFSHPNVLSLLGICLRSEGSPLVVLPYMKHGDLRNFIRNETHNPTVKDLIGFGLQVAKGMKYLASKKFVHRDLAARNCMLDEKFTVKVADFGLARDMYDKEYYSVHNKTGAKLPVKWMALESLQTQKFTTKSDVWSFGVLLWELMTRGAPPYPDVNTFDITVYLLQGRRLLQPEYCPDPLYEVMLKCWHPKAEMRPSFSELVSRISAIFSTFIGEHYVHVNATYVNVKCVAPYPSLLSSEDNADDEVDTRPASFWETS

SMILES: Cc1c(Br)ccc2c1C(=Cc1cc(Br)cs1)C(=O)N2 [10740/C10]
- Met Kinase % Inhibition (P.130): −1.8%
